Reference: ChEMBL document CHEMBL3046349, “Novel Mechanisms of Drug Action: Functional Selectivity at D2 Dopamine Receptors” (Med Chem Res, 2004)

Species on record: Rattus norvegicus
Experiment: Selectivity ratio of K0.5 for Rattus norvegicus Sprague-Dawley (rat) striatum dopamine D2 receptor to K0.5 for Sprague-Dawley Rattus norvegicus (rat) striatum dopamine D1 receptor
Type: tissue-based

For `Oc1cc2c(cc1O)[C@H]1c3ccccc3CN[C@@H]1CC2` (relative stereo), the Ratio was 10.
